Consider four molecules from publication PMC9140701, “Immunomodulatory Role of BLG-Derived Peptides Based on Simulated Gastrointestinal Digestion and DC-T Cell from Mice Allergic to Cow’s Milk” (Foods, 2022).

One data set deals with Caco-2 cell monolayer. In words: Caco-2 monolayer transport (apparent permeability), normal and IL-1β-induced inflammation model. Format: in vitro ADME, human. The following applies: integrity check. Here is the method: (§1) Caco-2 cells (a human colon adenocarcinoma cell line) were preserved in our lab and cultured in DMEM supplemented with 12% (v/v) FBS (FND500, ExCell Bio, Shanghai, China), 1% (v/v) L-glutamine, 1% (v/v) streptomycin–penicillin, and 1% (v/v) nonessential amino acids at 37 °C and 5% CO2. Caco-2 cells were seeded in 12-well Transwell plates at a density of 2 × 10^5 cells per well. On the 10th to 21st days, the transepithelial electrical resistance (TEER) of each well was detected using a Millicell ERS-2 V-ohm meter (Millipore, Boston, MA, USA). […] The protein profile of cow’s milk after simulated digestion was detected by (A) Tricine-SDS-PAGE. Lane 1: unstained low range protein ladder. Lane 2: pepsin. Lane 3: the cow’s milk. Lane 4: cow’s milk digested in the simulated adult gastrointestinal fluid for 0 min. Lane 5: cow’s milk digested in the simulated adult gastric fluid for 60 min. Lane 6: cow’s milk digested in the simulated adult gastrointestinal fluid for 60 min. Lane 7: cow’s milk digested in the simulated infant gastrointestinal fluid for 0 min. Lane 8: cow’s milk digested in the simulated infant gastric fluid for 60 min. Lane 9: cow’s milk digested in the infant simulated gastrointestinal fluid for 60 min. […] Y-axis value represents the occurrence numbers of amino acids of BLG peptides. (C) The whole amino acid sequence of BLG used in our study; the red letters indicate the areas where unique peptides are present after the simulated digestion of the infants, while the green letters represent unique peptides in the adults’ digestion. (D) The Papp of BLG peptides across Caco-;2 monolayers at 30 min, 1 h, 2 h, 3 h, and 4 h in the normal model and IL-1β-induced inflammation model, respectively. The data were calculated in three replicates. BLG, beta-lactoglobulin. Papp, apparent permeability coefficients.
A general note: Passage across Caco-2 layers is used to estimate intestinal permeability.

Test in data set [1]: as above
The following applies: human; Caco-2 monolayer, 12-well Transwell, 21 days, TEER > 400 Ω × cm^2, from AP side, 37 °C; within 2 h, at the three time points; normal model and IL-1β-induced inflammation model; three replicates; read-out: apparent permeability coefficient (Papp). Format: in vitro ADME, human. Here is the method:
as §1

Ends that are not written are not given here.

For the molecule `O=C([O-])c1ccccc1-c1c2ccc(=O)cc-2oc2cc([O-])ccc12.[Na+].[Na+]` [fluorescein sodium, reference compound], the “fluorescein sodium transport permeability” value is recorded as 1.19 μg/h·cm^2 in the data set with Caco-2 cell monolayer (Caco-2 monolayer after 21 days, normal mode) and 1.71 μg/h·cm^2 in the data set with Caco-2 cell monolayer (Caco-2 monolayer, inflammatory mode (IL-1β 10 ng/mL added on the 21st day, removed after 2 days)).

Consider LIVTQTMKGLDIQK [Peptide A1], for which, in data set [1], the Papp A→B was > 2 ×10⁻⁶ cm/s.

Regarding MAASDISLLDAQ [Peptide A2], in data set [1], the Papp A→B was > 2 ×10⁻⁶ cm/s.

In the case of RVYVEELKPTPEGDLEILLQK [Peptide A3], the Papp A→B in data set [1] was > 2 ×10⁻⁶ cm/s.
